System: not given
Test: not given
Details: not given

Structure (SMILES) | melting point [°C]
CC1(C)Oc2ccccc2[C@@H](COS([NH-])(=O)=O)O1.[Na+] (hydrate or solvate) [Example 59, Sodium (S)-(((2,2-dimethyl-4H-benzo[d][1,3]dioxin-4-yl)methoxy)sulfonyl)amide Trihydrate] | 51.2 to 52.2
CC1(C)Oc2ccccc2C(COS([NH-])(=O)=O)O1.[Na+] (stereo not drawn) (hydrate or solvate) [Example 60, Sodium (((2,2-dimethyl-4H-benzo[d][1,3]dioxin-4-yl)methoxy)sulfonyl)amide Trihydrate] | 81 to 86

System: CFA-induced pain model
Test: Antiallodynic activity on Complete Freund's Adjuvant (CFA)-induced inflammatory pain model (von Frey)
Format: in vivo, Sprague-Dawley rats
Details: Rattus norvegicus, ip, 0.5 h, read-out: CFA model: effect (%) compared to control
Method: Male, Sprague-Dawley rats (200-220 g, Nara Bio, Korea) were habituated for 1 week before surgery and allowed free access to food and water throughout the experimentation. Room temperature and humidity were maintained at 24±2° C. and 50±10%, respectively.
CFA-induced inflammatory pain was induced by the procedure of Nagakura et al. (2003) and Gregory P. et al. (2010) with minor modifications. CFA (sigma, USA) was injected into the left plantar with a 100 ul volume under gaseous anesthesia with isoflurane and NO2 with a 4:4 flow ratio. Sham controls were injected with 100 ul of saline and preparation of the vehicle controls were identical to the group treated with compound, except for administration of vehicles without compound in the vehicle control group.
Tactile sensitivity (mechanical allodynia) was evaluated using von Frey monofilaments before and after treatment, and the animals were included in the study only if the withdrawal threshold value was less than 4 g. One week after surgery, CFA-infused animals (n=4˜6), sham-operated animals (n=12), and vehicle-operated animals (n=17) were tested for tactile sensitivity with von Frey monofilaments, with 3 trials for each animal. All animals were placed in a stainless steel mesh chamber and habituated for 30 min in the test cage. The tactile sensitivity for the ipsilateral hind paw was measured using the up-and-down method (Dixon, 1980) with seven von Frey monofilaments (0.4, 1, 2, 4, 6, 8, and 15 g) in 3 trials. The tactile sensitivity test was followed by Dixon's method (Dixon, 1980). The 50% paw withdrawal threshold for each paw was calculated using the following formula: [Xth] log=[vFr] log+ky where [vFr] is the force of the last von Frey used, k=0.2249 which is the average interval (in log units) between the von Frey monofilaments, and y is a value that depends upon the pattern of the withdrawal responses (Dixon, 1980).
The antiallodynic effect of the compound of Example was evaluated at the doses of 10, 30 and 60 mg/kg (n=4˜6), and were intraperitoneally administered in a volume of 5 ul/g by bodyweight in a vehicle of 30% (v/v) PEG. […]
The relative values compared to the sham (% control) were calculated and are shown in Table 4, which show an antiallodynic effect of the compound of examples in the CFA-induced pain model in rats.

Structure (SMILES) | response vs control in vivo at 50 mg/kg [%]
CC1(C)Oc2ccccc2C(COS(N)(=O)=O)O1 (stereo not drawn) [Example 72, Potassium (((2,2-dimethyl-4H-benzo[d][1,3]dioxin-4-yl)methoxy)sulfonyl)amide] | 67.1

Same assay, conditions: ip; rat, intraperitoneal, 25 mg/kg administered, 0.5 h; read-out: CFA model: effect (%) compared to control

Structure (SMILES) | response vs control in vivo at 25 mg/kg [%]
NS(=O)(=O)OCC1OC2(CCCCC2)Oc2ccc(Cl)cc21 (racemic) [Example 53, (6-chloro-4H-spiro[benzo[d][1,3]dioxine-2,1′-cyclohexan]-4-yl)methyl sulfamate] | 57.3
CC1(C)Oc2ccc(F)cc2C(COS(N)(=O)=O)O1 (racemic) [Example 54, (6-fluoro-2,2-dimethyl-4H-benzo[d][1,3]dioxin-4-yl)methyl sulfamate] | 82.9
COc1ccc2c(c1)C(COS(N)(=O)=O)OC(C)(C)O2 (racemic) [Example 57, (6-methoxy-2,2-dimethyl-4H-benzo[d][1,3]dioxin-4-yl)methyl sulfamate] | 39.1
NS(=O)(=O)OC[C@@H]1OC2(CCCCC2)Oc2ccccc21 [Example 10, ((R)-4H-spiro[benzo[d][1,3]dioxine-2,1′-cylcohexan]-4-yl)methyl sulfamate] | 37.2
CCC1(CC)Oc2c(Cl)cccc2[C@@H](COS(N)(=O)=O)O1 [Example 29, ((S)-8-chloro-2,2-diethyl-4H-benzo[d][1,3]dioxin-4-yl)methyl sulfamate] | 43.9

Same assay, conditions: ip; rat, intraperitoneal, 50 mg/kg administered, 0.5 h; read-out: CFA model: effect (%) compared to control

Structure (SMILES) | response vs control in vivo at 50 mg/kg [%]
CCC1(CC)Oc2ccccc2C(COS(N)(=O)=O)O1 (racemic) [Example 6, (2,2-diethyl-4H-benzo[d][1,3]dioxin-4-yl))methyl sulfamate] | 64.6
NS(=O)(=O)OCCC1OC2(CCCCC2)Oc2ccccc21 (racemic) [Example 16, 2-(4H-spiro[benzo[d][1.3]dioxine-2,1′-cyclohexan]-4-yl)ethyl sulfamate] | 38.9
CCC1(CC)Oc2ccccc2CC(COS(N)(=O)=O)O1 (racemic) [Example 18, (2,2-diethyl-4,5-dihydrobenzo[d][1,3]dioxepin-4-yl)methyl sulfamate] | 91.7
NS(=O)(=O)OCC1Cc2ccccc2OC2(CCCCC2)O1 (racemic) [Example 20, (4,5-dihydrospiro[benzo[d][1,3]dioxepine-2,1′-cyclohexan]-4-yl)methyl sulfamate] | 69
CC1(C)Oc2cc(Cl)ccc2C(COS(N)(=O)=O)O1 (racemic) [Example 45, (7-chloro-2,2-dimethyl-4H-benzo[d][1,3]dioxin-4-yl)methyl sulfamate] | 33.1
CC1(C)Oc2ccc(Cl)cc2C(COS(N)(=O)=O)O1 (racemic) [Example 48, (6-chloro-2,2-dimethyl-4H-benzo[d][1,3]dioxin-4-yl)methyl sulfamate] | 21.7
CCC1(CC)Oc2ccc(Cl)cc2C(COS(N)(=O)=O)O1 (racemic) [Example 51, (6-chloro-2,2-diethyl-4H-benzo[d][1,3]dioxin-4-yl)methyl sulfamate] | 23.3
NS(=O)(=O)OC[C@H]1OC2(CCCC2)Oc2ccccc21 [Example 8, ((S)-4H-spiro[benzo[d][1,d]dioxine-2,1′-cyclopentan]-4-yl)methyl sulfamate] | 74.8
CC1(C)Oc2c(Cl)cccc2[C@@H](COS(N)(=O)=O)O1 [Example 26, ((S)-8-chloro-2,2-dimethyl-4H-benzo[d][1,3]dioxin-4-yl)methyl sulfamate] | 34.2
NS(=O)(=O)OC[C@H]1OC2(CCCC2)Oc2c(Cl)cccc21 [Example 32, ((S)-8-chloro-4H-spiro[benzo[d][1,3]dioxine-2,1′-cyclopentan]-4-yl)methyl sulfamate] | 51.9
NS(=O)(=O)OC[C@H]1OC2(CCCCC2)Oc2c(Cl)cccc21 [Example 35, ((S)-8-chloro-4H-spiro[benzo[d][1,3]dioxine-2,1′-cylcohexan]-4-yl)methyl sulfamate] | 15.5
CC1(C)Oc2ccc(Cl)cc2[C@H](COS(N)(=O)=O)O1 [Example 46, ((R)-6-chloro-2,2-dimethyl-4H-benzo[d][1,3]dioxin-4-yl)methyl sulfamate] | 36.4
CC1(C)Oc2ccc(Cl)cc2[C@@H](COS(N)(=O)=O)O1 [Example 47, ((S)-6-chloro-2,2-dimethyl-4H-benzo[d][1,3]dioxin-4-yl)methyl sulfamate] | 100

System: SNL model
Test: Antiallodynic activity in the Chung model (SNL, Spinal Nerve Ligation; von Frey)
Format: in vivo, Sprague-Dawley rats
Details: Rattus norvegicus, po, 0.5 h, read-out: SNL model: effect (%) compared to control, rat, oral, 3.5 mg/kg administered, 0.5 h
Method: Male Sprague-Dawley rats (200-220 g, Orient Bio, Korea) were habituated for 1 week before the experiment and allowed free access to food and water throughout the experimentation. Room temperature and humidity were maintained at 24±2° C. and 50±10%, respectively. The neuropathic surgery (SNL, Spinal Nerve Ligation) model was done as described in Kim and Chung (1992). Briefly, an animal was put under gaseous anesthesia with isoflurane and NO2 with a 4:4 flow ratio. The left lumbar spinal nerves L5 and L6 were isolated and tightly ligated with 4-0 silk thread. The wound was treated with a gentamicin antibiotic solution (4 mg/kg, 4 ul/g by bodyweight), and the wound muscle was closed with Catgut® chrome 4/0 thread and the skin was closed with Dafilon 4/0 thread. Sham controls were prepared in the same manner with the spinal nerves were exposed, but no ligated L5 and L6 nerves. Preparation of the vehicle controls were identical to the group treated with compound, except for administration of vehicles without compound in the vehicle control group.
Tactile sensitivity (mechanical allodynia) was evaluated using von Frey monofilaments before and after treatment and animals the animals were included in the study only if the withdrawal threshold value was less than 4 g. One week after surgery, SNL-operated animals (n=4˜6), sham-operated animals (n=4˜10) and vehicle-operated animals (n=4˜13) were tested for tactile sensitivity with von Frey monofilaments with 3 trials in each animal. All animals were placed in a stainless steel mesh chamber and habituated for 30 min in the test cage. The tactile sensitivity for ipsilateral hind paw was measured using the up-and-down method (Dixon, 1980) with seven von Frey monofilaments (0.4, 1, 2, 4, 6, 8, and 15 g) in 3 trials. The tactile sensitivity test was followed by Dixon's method (Dixon, 1980). The 50% paw withdrawal threshold for each paw was calculated using the following formula: [Xth] log=[vFr] log+ky where [vFr] is the force of the last von Frey used, k=0.2249 which is the average interval (in log units) between the von Frey monofilaments, and y is a value that depends upon the pattern of withdrawal responses (Dixon, 1980).
All animals were fasted for 18 h before the administration of the compounds. The antiallodynic effect of the compounds were evaluated at the various doses (n=5˜6), orally administered in a volume of 5 ul/g by bodyweight in a vehicle of 30% (v/v) PEG 400 (Example 7) or 20% (v/v) Tween 80 (Examples 5 and 6) or saline. […]
The relative values compared to the sham group (% control) were calculated and are shown in Table 5, which show an antiallodynic effect of the test compounds in the SNL model in rats.

Structure (SMILES) | response vs control in vivo at 3.5 mg/kg [%]
CC1(C)Oc2ccccc2C(CCOS(N)(=O)=O)O1 (stereo not drawn) [Example 68, Sodium ((2-(2,2-dimethyl-4H-benzo[d][1,3]dioxin-4-yl)ethoxy)sulfonyl)amide] | 25

Same assay, conditions: Rattus norvegicus, po, read-out: SNL model: effect (%) compared to control, rat, oral, 3.5 mg/kg administered, time not given

Structure (SMILES) | response vs control in vivo at 3.5 mg/kg [%]
CC1(C)Oc2ccc(Cl)cc2[C@H](COS(N)(=O)=O)O1 [Example 61, Sodium (R)-(((6-chloro-2,2-dimethyl-4H-benzo[d][1,3]dioxin-4-yl)methoxy)sulfonyl)amide] | 20.9

Same assay, conditions: rat, oral, 3.5 mg/kg administered, 0.5 h

Structure (SMILES) | SNL model: effect (%) compared to control
CC1(C)Oc2ccccc2[C@@H](COS([NH-])(=O)=O)O1.[Li+] [Example 73, Lithium (S)-(((2,2-dimethyl-4H-benzo[d][1,3]dioxin-4-yl)methoxy)sulfonyl)amide] | (13.5%, 0.5 h)

Same assay, conditions: rat, oral, 3.5 mg/kg administered, 0.5 h; read-out: SNL model: effect (%) compared to control

Structure (SMILES) | response vs control in vivo at 3.5 mg/kg [%]
CC1(C)Oc2ccccc2CC(COS(N)(=O)=O)O1 (racemic) [Example 17, (2,2-dimethyl-4,5-dihydrobenzo[d][1,3]dioxepin-4-yl)methyl sulfamate] | 16.8

Same assay, conditions: rat, oral, 3.5 mg/kg administered, time not given; read-out: SNL model: effect (%) compared to control

Structure (SMILES) | response vs control in vivo at 3.5 mg/kg [%]
CCC1(CC)Oc2ccccc2C(CCOS(N)(=O)=O)O1 (racemic) [Example 14, 2-(2,2-diethyl-4H-benzo[d][1.3]dioxin-4-yl)ethyl sulfamate] | 37.9
NS(=O)(=O)OCC1Cc2ccccc2OC2(CCCC2)O1 (racemic) [Example 19, (4,5-dihydrospiro[benzo[d][1,3]dioxepine-2,1′-cyclopentan]-4-yl)methyl sulfamate] | 33.3
